# Assay results from patent US8163929B2, “Dihydropyridone amides as P2X7 modulators” (Roche Palo Alto LLC, priority 2008, dated 2012).
# Target: T1, P2X7 (UniProt Q99572)
# T1 sequence (Q99572 1-595): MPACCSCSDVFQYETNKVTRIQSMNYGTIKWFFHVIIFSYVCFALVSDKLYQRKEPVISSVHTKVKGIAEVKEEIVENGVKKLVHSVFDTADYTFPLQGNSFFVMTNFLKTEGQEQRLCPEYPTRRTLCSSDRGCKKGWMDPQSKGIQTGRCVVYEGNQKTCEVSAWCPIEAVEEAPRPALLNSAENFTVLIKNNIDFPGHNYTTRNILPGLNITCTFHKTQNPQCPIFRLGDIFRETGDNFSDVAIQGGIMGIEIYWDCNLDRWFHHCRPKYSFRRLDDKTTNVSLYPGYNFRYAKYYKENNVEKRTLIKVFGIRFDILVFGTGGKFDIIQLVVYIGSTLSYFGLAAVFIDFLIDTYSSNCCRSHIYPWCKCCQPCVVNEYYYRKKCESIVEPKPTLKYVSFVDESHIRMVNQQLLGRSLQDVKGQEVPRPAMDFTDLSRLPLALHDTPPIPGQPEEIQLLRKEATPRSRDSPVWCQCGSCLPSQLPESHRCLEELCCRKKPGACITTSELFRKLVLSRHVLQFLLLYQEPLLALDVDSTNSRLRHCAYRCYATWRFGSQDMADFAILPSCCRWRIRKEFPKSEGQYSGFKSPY
# Test: P2X7 activity of Table 1
# Format: cell-based
# Conditions: pIC50 values for P2X7
# Method: Stock solutions of compounds were prepared from powders as a 10 mM DMSO stock solution. These solutions were stored at RT during the two week period of these experiments to prevent freeze-thaw of the DMSO stocks. The DMSO stocks were added to the appropriate assay buffer at a concentration of 10 μM, and then diluted serially to the final concentrations that were tested. […] The aqueous solutions of compounds as well as ATP (Sigma A7699) and BzATP (Sigma B6396) were prepared fresh for each day of experiment.
# 1321N1 cells stably expressing the full length human P2X7 gene (1321N1-hP2X7) and HEK293 cells stably expressing the full length rat P2X7 gene (HEK293-rP2X7) were obtained from the Roche Cell Culture Facility. 1321N1-hP2X7 cells were grown in Dulbecco's Modified Eagle's Medium (DMEM) high glucose supplemented with 10% FBS and 250 μg/mL G418. HEK293-rP2X7 cells were grown in DMEM/F-12 supplemented with 10% FBS, 1 mM CaCl2, 2 mM MgCl2, 2 mM L-Glutamine and 500 μg/ml G418. Cells were split such that they never became >70% confluent.
# On the day prior to the experiment, 1321N1-hP2X7 or HEK293-rP2X7 cells were released into suspension with calcium-free PBS+Versene and washed by centrifugation with calcium-free PBS to remove the Versene. Cells were resuspended in growth medium at a density of 2.5×10^5 cells/mL and seeded into black walled, clear bottom 96 well plates (50,000 cells/well) approximately 18 hr prior to intracellular calcium flux experiments.
# On the day of the experiment, plates were washed with FLIPR buffer (calcium- and magnesium-free Hank's Balanced Salt Solution (HBSS) supplemented with 10 mM Hepes, 2.5 mM probenecid and 2 mM calcium chloride) using a BIO-TEK 96 channel plate washer and incubated with […] fluo-3 dye at 37° C. for one hr. The dye was then removed by plate washing and the cells were allowed to equilibrate for 20 min at room temperature with antagonist or vehicle (FLIPR buffer). Agonist (100 μM BzATP final concentration for hP2X7; 5 μM BzATP final concentration or rP2X7) was added online with the FLIPR and fluorescence measurements made at 1 sec intervals for 60 sec followed by 3 sec intervals for a further 4 min (5 min total). A final addition of 5 μM ionomycin was made and the maximal BzATP-evoked fluorescence normalized to the maximal ionomycin-evoked fluorescence.
row,Compound,pIC50
1,"Cc1cc(-c2ccc(C)c(NC(=O)C3=CNC(=O)C[C@H]3c3ccc(F)cc3)c2)on1 [Compound 26, (S)-4-(4-Fluoro-phenyl)-6-oxo-1,4,5,6-tetrahydro-pyridine-3-carboxylic acid [2-methyl-5-(3-methyl-isoxazol-5-yl)-phenyl]-amide]",7.265
2,"Cc1ncn(-c2ccc(C)c(NC(=O)C3=CNC(=O)C[C@H]3c3ccc(F)cc3)c2)n1 [Compound 27, (S)-4-(4-Fluoro-phenyl)-6-oxo-1,4,5,6-tetrahydro-pyridine-3-carboxylic acid [2-methyl-5-(3-methyl-[1,2,4]triazol-1-yl)-phenyl]-amide]",6.28
3,"Cc1cn(-c2ccc(C)c(NC(=O)C3=CNC(=O)C[C@H]3c3ccc(F)cc3)c2)nn1 [Compound 28, (S)-4-(4-Fluoro-phenyl)-6-oxo-1,4,5,6-tetrahydro-pyridine-3-carboxylic acid [2-methyl-5-(4-methyl-[1,2,3]triazol-1-yl)-phenyl]-amide]",7.145
4,"Cc1cnn(-c2ccc(C)c(NC(=O)C3=CNC(=O)C[C@H]3c3ccc(F)cc3)c2)c1 [Compound 29, (S)-4-(4-Fluoro-phenyl)-6-oxo-1,4,5,6-tetrahydro-pyridine-3-carboxylic acid [2-methyl-5-(4-methyl-pyrazol-1-yl)-phenyl]-amide]",7.99
5,"Cc1nnc(-c2ccc(C)c(NC(=O)C3=CNC(=O)C[C@H]3c3ccc(F)cc3)c2)o1 [Compound 30, (S)-4-(4-Fluoro-phenyl)-6-oxo-1,4,5,6-tetrahydro-pyridine-3-carboxylic acid [2-methyl-5-(5-methyl-[1,3,4]oxadiazol-2-yl)-phenyl]-amide]",6.275
6,"Cc1cc(-c2ccc(C)c(NC(=O)C3=CN(C)C(=O)C[C@H]3c3ccc(F)cc3)c2)n[nH]1 [Compound 31, (S)-4-(4-Fluoro-phenyl)-1-methyl-6-oxo-1,4,5,6-tetrahydro-pyridine-3-carboxylic acid [2-methyl-5-(5-methyl-1H-pyrazol-3-yl)-phenyl]-amide]",7.35
7,"CCCn1nccc1-c1ccc(C)c(NC(=O)C2=CNC(=O)C[C@H]2c2ccc(F)cc2)c1 [Compound 32, (S)-4-(4-Fluoro-phenyl)-6-oxo-1,4,5,6-tetrahydro-pyridine-3-carboxylic acid [2-methyl-5-(2-propyl-2H-pyrazol-3-yl)-phenyl]-amide]",6.885
8,"Cc1cc(-c2ccc(Cl)c(NC(=O)C3=CNC(=O)C[C@H]3c3ccc(F)cc3)c2)n[nH]1 [Compound 33, (S)-4-(4-Fluoro-phenyl)-6-oxo-1,4,5,6-tetrahydro-pyridine-3-carboxylic acid [2-chloro-5-(5-methyl-1H-pyrazol-3-yl)-phenyl]-amide]",7.4067
9,"Cc1ccc(-c2nnc(C)n2C)cc1NC(=O)C1=CNC(=O)C[C@H]1c1ccc(F)cc1 [Compound 34, (S)-4-(4-Fluoro-phenyl)-6-oxo-1,4,5,6-tetrahydro-pyridine-3-carboxylic acid [5-(4,5-dimethyl-4H-[1,2,4]triazol-3-yl)-2-methyl-phenyl]-amide]",7.78
10,"Cc1cc(Cl)c(CN2CCOC2=O)cc1NC(=O)C1=CNC(=O)C[C@H]1c1ccc(F)cc1 [Compound 35, (S)-4-(4-Fluoro-phenyl)-6-oxo-1,4,5,6-tetrahydro-pyridine-3-carboxylic acid [4-chloro-2-methyl-5-(2-oxo-oxazolidin-3-ylmethyl)-phenyl]-amide]",8.135
11,"Cc1cc(-c2cc(NC(=O)C3=CNC(=O)C[C@H]3c3ccc(F)cc3)ccc2Cl)n[nH]1 [Compound 36, (S)-4-(4-Fluoro-phenyl)-6-oxo-1,4,5,6-tetrahydro-pyridine-3-carboxylic acid [4-chloro-3-(5-methyl-1H-pyrazol-3-yl)-phenyl]-amide]",5.92
12,"Cc1ccc(-n2ncc(=O)n(C)c2=O)cc1NC(=O)C1=CNC(=O)C[C@H]1c1ccc(F)cc1 [Compound 37, (S)-4-(4-Fluoro-phenyl)-6-oxo-1,4,5,6-tetrahydro-pyridine-3-carboxylic acid [2-methyl-5-(4-methyl-3,5-dioxo-4,5-dihydro-3H-[1,2,4]triazin-2-yl)-phenyl]-amide]",7.76
13,"Cc1ccc(-c2cc(C)n(CCO)n2)cc1NC(=O)C1=CN(C)C(=O)C[C@H]1c1ccc(F)cc1 [Compound 38, (S)-4-(4-Fluoro-phenyl)-1-methyl-6-oxo-1,4,5,6-tetrahydro-pyridine-3-carboxylic acid {5-[1-(2-hydroxy-ethyl)-5-methyl-1H-pyrazol-3-yl]-2-methyl-phenyl}-amide]",7.46

# Now from value to compound:
row,pIC50,Compound
1,7.76,"Cc1ccc(-n2ncc(=O)n(CCO)c2=O)cc1NC(=O)C1=CNC(=O)C[C@H]1c1ccc(F)cc1 [Compound 39, (S)-4-(4-Fluoro-phenyl)-6-oxo-1,4,5,6-tetrahydro-pyridine-3-carboxylic acid {5-[4-(2-hydroxy-ethyl)-3,5-dioxo-4,5-dihydro-3H-[1,2,4]triazin-2-yl]-2-methyl-phenyl}-amide]"
2,7.183,"Cc1cc(-c2ccc(C)c(NC(=O)C3=CNC(=O)C[C@H]3c3ccc(F)cc3)c2)no1 [Compound 40, (S)-4-(4-Fluoro-phenyl)-6-oxo-1,4,5,6-tetrahydro-pyridine-3-carboxylic acid [2-methyl-5-(5-methyl-isoxazol-3-yl)-phenyl]-amide]"
3,8.048,"Cc1cc(-c2cc(NC(=O)C3=CNC(=O)C[C@H]3c3ccc(F)cc3)c(C)cc2F)n[nH]1 [Compound 41, (S)-4-(4-Fluoro-phenyl)-6-oxo-1,4,5,6-tetrahydro-pyridine-3-carboxylic acid [4-fluoro-2-methyl-5-(5-methyl-1H-pyrazol-3-yl)-phenyl]-amide]"
4,7.3,"COCCn1nc(-c2ccc(C)c(NC(=O)C3=CNC(=O)C[C@H]3c3ccc(F)cc3)c2)cc1C [Compound 42, (S)-4-(4-Fluoro-phenyl)-6-oxo-1,4,5,6-tetrahydro-pyridine-3-carboxylic acid {5-[1-(2-methoxy-ethyl)-5-methyl-1H-pyrazol-3-yl]-2-methyl-phenyl}-amide]"
5,7.54,"Cc1ccc(-c2cnccn2)cc1NC(=O)C1=CNC(=O)C[C@H]1c1ccc(F)cc1 [Compound 43, (S)-4-(4-Fluoro-phenyl)-6-oxo-1,4,5,6-tetrahydro-pyridine-3-carboyxlic acid (2-methyl-5-pyrazin-2-yl-phenyl)-amide]"
6,7.567,"Cc1ccc(-c2ccc(C)c(NC(=O)C3=CNC(=O)C[C@H]3c3ccc(F)cc3)c2)nn1 [Compound 44, (S)-4-(4-Fluoro-phenyl)-6-oxo-1,4,5,6-tetrahydro-pyridine-3-carboxylic acid [2-methyl-5-(6-methyl-pyridazin-3-yl)-phenyl]-amide]"
7,7.01,"Cc1cnc(-c2ccc(C)c(NC(=O)C3=CNC(=O)C[C@H]3c3ccc(F)cc3)c2)cn1 [Compound 45, (S)-4-(4-Fluoro-phenyl)-6-oxo-1,4,5,6-tetrahydro-pyridine-3-carboxylic acid [2-methyl-5-(5-methyl-pyrazin-2-yl)-phenyl]-amide]"
8,7.873,"Cc1ccc(N2CCCC2)cc1NC(=O)C1=CNC(=O)C[C@H]1c1ccc(F)cc1 [Compound 46, (S)-4-(4-Fluoro-phenyl)-6-oxo-1,4,5,6-tetrahydro-pyridine-3-carboxylic acid (2-methyl-5-pyrrolidin-1-yl-phenyl)-amide]"
